{
  "source": "patent US5336485A",
  "about": "“Method for protecting animals against tacrine induced cytotoxic injury using sterol compounds” (priority 1993, dated 1994)",
  "key": {"rat hepatocytes": {"system": "rat hepatocytes", "conditions": "cited from earlier work"}, "Sprague-Dawley rats": {"system": "Sprague-Dawley rats", "assay": "Paraquat lethality in rats", "conditions": "rat, in vivo", "description": "Rats received a 100 mg/kg (ip) dose of alpha-TS twenty four hours prior to a 40 mg/kg (ip) insult of paraquat which is a lung specific toxic agent. The rats also received a 100 mg/kg (ip) dose of alpha-TS each day after the paraquat insult."}, "[1]": {"system": "platelet phospholipase A2", "conditions": "cited from earlier work"}, "[2]": {"system": "mouse neuroblastoma cells NBP2", "conditions": "10 μM; cited from earlier work"}, "human prostate cells": {"system": "human prostate cells", "conditions": "10 μM; cited from earlier work"}, "L1210 leukemia cells": {"system": "L1210 leukemia cells", "assay": "Doxorubicin in L1210 leukemia bearing CDF1 mice", "format": "in vivo, mouse", "conditions": "alpha-TS tris salt 100 mg/kg ip", "description": "The experiments were conducted in accordance with NCI Protocol 1,100. FIGS. 8a-d show the experimental results obtained when male CDF1 mice (n=6) received either vehicle only or 100mg/kg body weight i.p. dose of either alpha-TS or cholesteryl succinate 20 hours prior to DOX administration. FIGS. 8a-d respectively show the results obtained when the mice received 10, 15, 20, and 25 mg DOX/kg body weight. […] FIGS. 9a-d show the experimental results obtained when male CDF1 mice ([…]) were injected (i.p.) with 10^6 murine L1210 leukemia cells followed immediately by an injection of alpha-TS tris salt (100 mg/kg, i.p.) or saline injection (vehicle), and twenty hours later (Day=0) each mouse in three of the groups was i.p. injected with 15, 20, or 25 mg DOX/kg body weight ([…]). Survival was monitored for twenty days."}, "canine hepatocytes [3]": {"system": "canine hepatocytes", "assay": "Intracellular K+ of canine hepatocytes exposed to EMS", "format": "cell-based", "conditions": "25 μM, 50 mM EMS", "excerpt": "Medzhradsky, Biochem. Med. 13:164 (1975), has noted that the cell's ability to maintain its intracellular concentration of potassium (K^+) is an excellent indicator of the metabolic integrity of the cell. A concentration gradient exists for K^+ with greater concentrations found intracellularly. To maintain this gradient, the cell is dependent on the action of the Na^+ -K^+ ATPase pump and an adequate supply of ATP. As cellular ATP levels decline, the ATPase pump is unable to maintain the gradient resulting in the loss of intracellular K^+ by equilibration with the extracellular space. Because the maintenance of cellular metabolic processes is essential to the continual repair and survival of cells, organ systems, and organisms, the effect of alpha-TS on the metabolic integrity of rat liver cells during a toxic insult was investigated by measuring intracellular K^+ levels. FIGS. 2a-2b show the response of rat and canine hepatocytes, respectively, exposed to 50 mM EMS. […] The response curves shown in FIGS. 2a and 2b indicate that alpha-TS under physiological conditions can maintain the metabolic integrity of animal hepatocytes during a toxic insult.\n(§1) Only viable cells were monitored in the laboratory procedures."}, "central nervous system": {"system": "central nervous system", "assay": "CCl4 central nervous system toxicity in rats", "format": "in vivo, rat", "conditions": "pretreatment"}, "canine hepatocytes [4]": {"system": "canine hepatocytes", "assay": "EMS-induced cytotoxicity in canine hepatocytes", "format": "cell-based", "conditions": "25 μM, 50 mM EMS"}, "male Sprague-Dawley rats [5]": {"system": "male Sprague-Dawley rats", "assay": "Energy status of rat tissue", "format": "in vivo", "conditions": "100 mg/kg ip, 24 h", "description": "An in vivo experiment was performed to determine the effect of alpha-TS on the energy status of rat tissues. Male Sprague-Dawley rats were administered alpha-TS (100 mg/kg, single ip dose) or olive oil (vehicle only, 0.2 ml, single ip dose). Three rats were used per treatment. The rats fasted for 24 hours after ip dosage prior to sacrifice and analysis of tissues."}, "[6]": {"assay": "Cytotoxicity of various toxic insults (A23187, cadmium, O2, doxorubicin, CCl4, hypoxia) in rat hepatocytes", "format": "cell-based", "conditions": "rat, hepatocytes; Control (vehicle only, no insult), 25 μM alpha-TS; read-out: % Cell Death", "description": "as §1\nIn vitro experiments were performed to determine if alpha-TS could protect cells from different toxic insults. Under physiological conditions, rat hepatocytes were incubated with medium containing 25 μM alpha-TS. The hepatocytes were exposed to EMS, a potent mutagen and alkylating agent; the ionophore A23187, a membrane active compound that permits the equilibration of divalent cations across cell membranes; cadmium, a heavy metal, environmental contaminant, and known carcinogen who's mechanism of toxicity remains unknown; 95% O2, an excessive oxygen insult that produces an abundance of toxic oxygen free radicals and reactive oxygen intermediates in the cell; doxorubicin (adriamycin), a clinically important antitumor agent with cytotoxic effects proposed to result from its metabolic activation and the generation or reactive oxygen species; carbon tetrachloride (CCl4); and hypoxia (an absence of oxygen followed by reoxygenation)."}, "male Sprague-Dawley rats [7]": {"system": "male Sprague-Dawley rats", "assay": "Global liver ischemia/reperfusion-induced lethality in rats", "format": "in vivo, rat", "conditions": "ip 20 h prior, global ischemia 60 min; CS 100 mg/kg; cholesterol 64 + tris succinate 100 mg/kg", "description": "20 hours prior to global occlusion, one group of 10 rats was provided with 64 mg cholesterol/kg body weight and 100 mg tris succinate/kg body weight by i.p. injection, and another group of 10 rats was provided with 100 mg cholesteryl succinate/kg body weight. A control group of rats was only partially occluded for the one hour period. Ninety percent of the rats pretreated with cholesteryl succinate tris salt survived while only 10% of those pretreated with the combination of cholesterol and tris succinate survived. Table 22 of a partial ischemia study where male Sprague-Dawley rats were subjected to occlusion of the blood supply to the left lateral and median lobes of the liver for 60 minutes followed by reperfusion for 24 hours. During this time, the normal blood supply to the other lobes of the liver was maintained. […] Serum was obtained for AST and ALT measurements.\n^a Global (total) or partial liver ischemia was induced 20 hours"}, "male Sprague-Dawley rats [8]": {"system": "male Sprague-Dawley rats", "assay": "THA-induced side effects in rats", "conditions": "100 mg/kg ip 20 h prior"}},
  "note": "Counter-ions that a name gives are not always drawn.",
  "data": [
    {"smiles": "Cc1c(C)c2c(c(C)c1OC(=O)CCC(=O)O)CC[C@@](C)(CCC[C@H](C)CCC[C@H](C)CCCC(C)C)O2", "note": "[alpha-TS, d-alpha-tocopheryl succinate]", "values": [
      {"measurement": "cytoprotective effect at 3.5 mM Ca2+", "setting": "rat hepatocytes; 3.5 mM Ca2+", "value": "eliminated the cytoprotective effect"},
      {"measurement": "protection of rat hepatocytes from toxic effects of drugs", "setting": "rat hepatocytes; Ca2+ free medium", "value": "protected from the toxic effects of drugs"},
      {"measurement": "survival time of paraquat exposed rats", "setting": "Sprague-Dawley rats", "value": 6, "unit": "days"},
      {"measurement": "inhibition of platelet phospholipase A2 activity", "setting": "[1]", "value": "inhibits platelet phospholipase A2 activity"},
      {"measurement": "tumor cell growth", "setting": "[2]", "value": "inhibits tumor cell growth"},
      {"measurement": "tumor cell growth", "setting": "human prostate cells", "value": "inhibits tumor cell growth"},
      {"measurement": "survival of DOX treated tumor bearing mice (FIG. 9b)", "setting": "L1210 leukemia cells; DOX 10 mg/kg", "value": "no effect on the survival of DOX treated animals"},
      {"measurement": "survival of tumor bearing mice at higher DOX", "setting": "L1210 leukemia cells; DOX 15 and 25 mg/kg", "value": "significant protection from DOX"},
      {"measurement": "intracellular K+ during EMS insult", "setting": "canine hepatocytes [3]", "value": "no loss of intracellular K+"},
      {"measurement": "recovery from acute CNS toxic manifestations of CCl4", "setting": "central nervous system", "value": "several days before rats which are not treated with alpha-TS"},
      {"measurement": "protection from lethal effects of EMS", "setting": "canine hepatocytes [4]", "value": "protected both rat and canine hepatocytes from the lethal effects"},
      {"measurement": "ATP, Blood", "setting": "male Sprague-Dawley rats [5]", "value": "647 ± 29", "unit": "nmol/g"},
      {"measurement": "ATP, Brain", "setting": "male Sprague-Dawley rats [5]", "value": "293 ± 86", "unit": "nmol/g"},
      {"measurement": "ATP, Heart", "setting": "male Sprague-Dawley rats [5]", "value": "2782 ± 868", "unit": "nmol/g"},
      {"measurement": "ATP, Kidney", "setting": "male Sprague-Dawley rats [5]", "value": "515 ± 44", "unit": "nmol/g"},
      {"measurement": "ATP, Liver", "setting": "male Sprague-Dawley rats [5]", "value": "458 ± 57", "unit": "nmol/g"},
      {"measurement": "ATP, Lung", "setting": "male Sprague-Dawley rats [5]", "value": "418 ± 18", "unit": "nmol/g"},
      {"measurement": "Glucose, Blood", "setting": "male Sprague-Dawley rats [5]", "value": "4.8 ± 0.3", "unit": "µmol/g"},
      {"measurement": "Glucose, Heart", "setting": "male Sprague-Dawley rats [5]", "value": "10.1 ± 1.7", "unit": "µmol/g"},
      {"measurement": "Glucose, Kidney", "setting": "male Sprague-Dawley rats [5]", "value": "3.4 ± 1.1", "unit": "µmol/g"},
      {"measurement": "Glucose, Liver", "setting": "male Sprague-Dawley rats [5]", "value": "21.7 ± 9.7", "unit": "µmol/g"},
      {"measurement": "Glucose, Lung", "setting": "male Sprague-Dawley rats [5]", "value": "4.1 ± 0.5", "unit": "µmol/g"},
      {"measurement": "Glycogen, Blood", "setting": "male Sprague-Dawley rats [5]", "value": "117 ± 26", "unit": "µmol/g"},
      {"measurement": "Glycogen, Brain", "setting": "male Sprague-Dawley rats [5]", "value": "1400 ± 372", "unit": "nmol/g"},
      {"measurement": "Glycogen, Heart", "setting": "male Sprague-Dawley rats [5]", "value": "4320 ± 946", "unit": "nmol/g"},
      {"measurement": "Glycogen, Kidney", "setting": "male Sprague-Dawley rats [5]", "value": "211 ± 44", "unit": "µmol/g"},
      {"measurement": "Glycogen, Liver", "setting": "male Sprague-Dawley rats [5]", "value": "778 ± 98", "unit": "µmol/g"},
      {"measurement": "Glycogen, Lung", "setting": "male Sprague-Dawley rats [5]", "value": "634 ± 133", "unit": "µmol/g"},
      {"measurement": "Lactate, Blood", "setting": "male Sprague-Dawley rats [5]", "value": "1.68 ± .06 µmol/g"},
      {"measurement": "Lactate, Brain", "setting": "male Sprague-Dawley rats [5]", "value": "7.82 ± .20 µmol/g"},
      {"measurement": "Lactate, Heart", "setting": "male Sprague-Dawley rats [5]", "value": "10.84 ± 2.67", "unit": "µmol/g"},
      {"measurement": "Lactate, Kidney", "setting": "male Sprague-Dawley rats [5]", "value": "3.10 ± .21 µmol/g"},
      {"measurement": "Lactate, Liver", "setting": "male Sprague-Dawley rats [5]", "value": "3.36 ± .20 µmol/g"},
      {"measurement": "Lactate, Lung", "setting": "male Sprague-Dawley rats [5]", "value": "2.24 ± .29 µmol/g"},
      {"measurement": "cytotoxicity at 25 µM", "setting": "[6]", "value": 21, "unit": "%"}
    ]},
    {"smiles": "CC(C)CCC[C@@H](C)[C@H]1CC[C@H]2[C@@H]3CC=C4C[C@@H](OC(=O)CCC(=O)O)CC[C@]4(C)[C@H]3CC[C@]12C", "note": "[Cholesteryl Succinate tris salt]", "values": [
      {"measurement": "% Survival", "setting": "male Sprague-Dawley rats [7]", "value": 90, "unit": "%"},
      {"measurement": "Survival", "setting": "male Sprague-Dawley rats [8]; THA 30.0 mg/kg (vehicle 100%)", "value": 40, "unit": "%"},
      {"measurement": "Salivation", "setting": "male Sprague-Dawley rats [8]; THA 30.0 mg/kg, 0 to 4 scale (vehicle 2.2 ± 0.4)", "value": "4.0 ± 0.0"},
      {"measurement": "Tremors", "setting": "male Sprague-Dawley rats [8]; THA 30.0 mg/kg, 0 to 4 scale (vehicle 3.0 ± 0.0)", "value": "4.0 ± 0.0"}
    ]}
  ]
}
